Results reported in patent publication US20100093706A1, “MULTIMEDIATOR TRANSPORTER INHIBITORS FOR USE IN TREATMENT OF CENTRAL NERVOUS SYSTEM DISORDERS” (priority 2006, published 2010).
“Also recorded” adds a separate entry of the source. Read-outs that look alike come from different tables or passages of the source.

How the values were obtained:
rats = assay: forced swim test (behavioral despair assay) in rats; format: in vivo; conditions: rat
Description: In vivo efficacy of several illustrative inhibitors of the instant invention, (1), (3), and (4), were measured using standard forced swim test model using rat. The objective of this study was to assess the antidepressant effects of test compounds in the behavioral despair assay in rats using a modification of a method described by Porsolt R. D. et al. in Behavioural despair in rats: a new model sensitive to antidepressant treatment, Eur. J. Pharmacol., 47: 379-391, 1978; Porsolt et al., Nature 266: 730-732, 1977; and Porsolt et al., in Psychopharmacology, Olivier, Mos, and Slangen (eds) Birkhäuser Verlag, Basel, pp. 137-159, 1991. Briefly, when mice (or rats) are forced to swim in a cylinder from which no escape is possible, they readily adopt a characteristic immobile posture and make no further attempts to escape except for small movements needed to keep floating. The immobility is considered by some to reflect a “depressive mood” (Porsolt et al., Nature 266: 730-732, 1977) in which animals cease to struggle to escape the aversive situation. The immobility induced by the procedure is influenced by a wide variety of antidepressants (Porsolt et al., in Psychopharmacology, Olivier, Mos, and Slangen (eds) Birkhauser Verlag, Basel, pp. 137-159, 1991) and has a good predictive validity in that it detects antidepressants with different mechanisms of action (TCAs, SSRIs, MAOIs, and other atypical ones). The test is sensitive to muscle-relaxant (benzodiazepines) and sedative (neuroleptics) effects, leading to enhanced immobility (Porsolt et al., supra).
In a typical experiment, animals are placed singly into a cylinder (e.g. 46×30 cm) containing fresh water at about 20° C. for 6 minutes. The activity (or immobility) of the animal is measured by an observer minute by minute. In more detail, the animals were preconditioned in a pretest session, where the rats were individually forced to swim inside a vertical plexiglass cylinder containing water maintained at 19-20° C. After 15 minutes in the water, they were allowed to dry for […] in a heated enclosure. Twenty-four hours later, the compounds were administered either intraperitoneally or orally to the animals. One hour after administration of the test compound, animals were put back into the cylinder containing water. The total duration of immobility was measured during the last 4 minutes of a 6 minute test.
The results are expressed as the percentage of variation of the total duration of immobility calculated from the mean value of the vehicle-treated group (% variation=[(immobility duration of vehicle−immobility duration of test compound)/(immobility duration of vehicle)]×100%).
In order to measure the in vivo efficacy of inhibiting DAT in rats using an inhibitor of the instant invention, one test inhibitor ((1), (3), or (4)) was injected i.p. as racemic mixtures of diastereomers into the animals, at various-doses (e.g. 7.5 and […]). Sibutramine (2.0 and 2.5 mg/kg), Bupropion (7.5 and 10 mg/kg), and Imipramine (30 mg/kg) were similarly administered as controls. […] Asterisks indicate highly statistical significant results.
A fourth inhibitor, (6) was administered p.o. as a racemic mixture of diastereomers at either 35 or 75 mg/kg. Sibutramine (5.0 and 3.75 mg/kg), Bupropion (30 and 40 mg/kg), and Imipramine (100 mg/kg) were similarly administered as controls.
Similarly, (1) was also administered p.o. as a racemic mixture of enriched (95:5) diastereomer at either 35 or 75 mg/kg. […]

rat = assay: acute single-dose toxicology in rat; format: in vivo; conditions: rat (n = 5), i.v., observed 72 hours
Description: An in vivo evaluation was carried out to determine the maximum tolerated dose of numerous test compounds in rat. The compounds were administered i.v., and the animals were then observed for 72 hours.
Briefly, experimental rats, in groups of 5 animals, were administered with various doses of respective inhibitors (e.g. 30, 90, 120, and 200 mg/kg), and the observed toxicological effects were recorded.

5-HT = 5-HT (Homo sapiens, UniProt P31645); assay: cell-based
5-HT, sequence (P31645 whole entry): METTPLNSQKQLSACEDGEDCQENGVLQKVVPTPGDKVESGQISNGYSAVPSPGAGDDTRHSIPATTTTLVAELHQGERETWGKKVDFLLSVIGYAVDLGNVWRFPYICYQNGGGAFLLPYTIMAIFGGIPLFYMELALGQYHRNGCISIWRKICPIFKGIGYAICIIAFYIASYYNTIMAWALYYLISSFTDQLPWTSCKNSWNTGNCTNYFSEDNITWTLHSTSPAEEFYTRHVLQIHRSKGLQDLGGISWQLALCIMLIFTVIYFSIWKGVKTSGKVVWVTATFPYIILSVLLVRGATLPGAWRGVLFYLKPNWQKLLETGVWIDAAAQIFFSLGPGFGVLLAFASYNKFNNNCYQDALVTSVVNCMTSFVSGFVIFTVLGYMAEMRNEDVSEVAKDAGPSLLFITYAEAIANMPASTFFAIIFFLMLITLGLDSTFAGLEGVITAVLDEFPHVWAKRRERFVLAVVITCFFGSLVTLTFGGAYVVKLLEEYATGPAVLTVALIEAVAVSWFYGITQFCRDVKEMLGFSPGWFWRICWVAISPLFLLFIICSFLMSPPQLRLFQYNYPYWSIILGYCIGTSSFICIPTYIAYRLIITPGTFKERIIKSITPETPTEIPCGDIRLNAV

DAT (r) = DAT (r) (Rattus norvegicus, UniProt P23977); assay: in vitro functional uptake, rat DAT; format: cell-based; conditions: rat; unit inferred; read-out: DAT (r) in vitro functional uptake
DAT (r), sequence (P23977 whole entry): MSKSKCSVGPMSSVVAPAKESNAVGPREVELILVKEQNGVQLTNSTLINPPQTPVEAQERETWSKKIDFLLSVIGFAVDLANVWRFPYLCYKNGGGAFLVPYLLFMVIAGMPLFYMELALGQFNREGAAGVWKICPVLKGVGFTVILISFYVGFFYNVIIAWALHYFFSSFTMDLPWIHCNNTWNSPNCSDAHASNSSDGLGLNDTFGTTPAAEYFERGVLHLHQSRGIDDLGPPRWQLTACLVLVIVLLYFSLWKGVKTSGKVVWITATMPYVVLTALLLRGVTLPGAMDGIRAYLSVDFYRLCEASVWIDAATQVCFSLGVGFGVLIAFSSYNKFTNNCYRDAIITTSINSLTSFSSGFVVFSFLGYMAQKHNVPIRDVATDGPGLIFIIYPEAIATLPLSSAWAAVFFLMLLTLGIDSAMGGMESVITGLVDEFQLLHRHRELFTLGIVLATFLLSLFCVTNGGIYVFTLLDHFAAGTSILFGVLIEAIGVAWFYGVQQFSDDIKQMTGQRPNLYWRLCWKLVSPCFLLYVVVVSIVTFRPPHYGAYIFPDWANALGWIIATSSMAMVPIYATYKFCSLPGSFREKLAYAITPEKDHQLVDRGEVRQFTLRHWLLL

[1] = target: NET (norepinephrine transporter or SLC6A2) (Homo sapiens, UniProt P23975); assay: cell-based
NET (norepinephrine transporter or SLC6A2), sequence (P23975 whole entry): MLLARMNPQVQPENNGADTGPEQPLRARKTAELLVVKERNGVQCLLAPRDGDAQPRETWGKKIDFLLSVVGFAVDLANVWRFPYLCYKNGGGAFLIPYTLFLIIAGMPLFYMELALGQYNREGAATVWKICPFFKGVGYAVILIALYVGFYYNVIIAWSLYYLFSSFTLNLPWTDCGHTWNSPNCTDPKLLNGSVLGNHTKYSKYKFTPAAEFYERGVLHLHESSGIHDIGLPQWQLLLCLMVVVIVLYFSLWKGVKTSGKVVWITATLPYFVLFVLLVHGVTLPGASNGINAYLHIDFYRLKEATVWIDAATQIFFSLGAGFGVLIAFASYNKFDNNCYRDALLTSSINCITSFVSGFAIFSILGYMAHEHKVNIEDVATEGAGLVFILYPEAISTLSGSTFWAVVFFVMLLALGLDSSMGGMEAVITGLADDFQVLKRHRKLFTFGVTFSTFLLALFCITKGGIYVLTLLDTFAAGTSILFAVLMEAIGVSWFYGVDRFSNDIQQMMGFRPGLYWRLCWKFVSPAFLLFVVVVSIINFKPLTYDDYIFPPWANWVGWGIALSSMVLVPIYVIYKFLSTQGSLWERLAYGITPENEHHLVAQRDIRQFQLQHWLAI

DAT (h) = target: T1, DAT (h) (Homo sapiens, UniProt Q01959); assay: cell-based; format: cell-based
T1 construct: expressed in transfected cells
T1 sequence (Q01959 whole entry): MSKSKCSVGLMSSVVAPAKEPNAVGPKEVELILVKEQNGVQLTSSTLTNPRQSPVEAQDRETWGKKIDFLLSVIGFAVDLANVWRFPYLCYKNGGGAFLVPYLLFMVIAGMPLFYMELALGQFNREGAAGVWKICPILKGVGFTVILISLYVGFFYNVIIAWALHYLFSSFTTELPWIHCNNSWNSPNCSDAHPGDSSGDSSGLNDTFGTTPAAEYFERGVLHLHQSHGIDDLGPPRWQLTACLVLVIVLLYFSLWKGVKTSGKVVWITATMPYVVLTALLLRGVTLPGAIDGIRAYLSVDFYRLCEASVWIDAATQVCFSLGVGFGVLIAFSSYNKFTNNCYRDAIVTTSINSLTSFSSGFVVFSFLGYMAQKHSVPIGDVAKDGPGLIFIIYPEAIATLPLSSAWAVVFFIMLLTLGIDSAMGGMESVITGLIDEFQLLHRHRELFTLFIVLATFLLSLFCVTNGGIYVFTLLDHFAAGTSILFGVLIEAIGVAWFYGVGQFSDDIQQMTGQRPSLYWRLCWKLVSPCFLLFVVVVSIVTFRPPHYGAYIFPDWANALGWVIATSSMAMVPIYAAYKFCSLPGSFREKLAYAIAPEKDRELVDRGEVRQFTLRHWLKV
Description: (§1) Functional activity of the compounds was determined in vitro in cellular assays using recombinant human cell lines.

DAT (SLC6A3) = target: T2, DAT (SLC6A3) (Homo sapiens, UniProt Q01959); assay: in vitro inhibition profile, IC50 of DAT (uptake assay); format: cell-based
T2 construct: expressed in transfected cells
T2 sequence (Q01959 whole entry): as above
Description: Before the assay, cells expressing DAT are washed once with KRH and equilibrated for 5 min. The cells may be assayed in 24-well plates and incubated for 2-5 min. with tritiated amines. Nontransported inhibitors were preincubated for 5 min, and substrates were applied together with the tritiated substrate.
Experiments to determine the ionic requirements for DAT-mediated uptake are done in KRH buffer, substituting LiCl or choline Cl for NaCl (sodium-dependence) or substituting D-gluconates for NaCl and KCl, and Ca(NO3)2 for CaCl2 (chloride dependence). Cells are washed twice with sodium- or chloride-free KRH before the assay (each wash step at least 5 min). In all transport assays, incubation periods and substrate concentrations are chosen such that uptake obeyed first-order rate kinetics.
Vmax values for amine uptake in stable transfected DAT-cells are determined in parallel assays for at least two amines per experiment and expressed as relative values.

NET (h) = target: T3, NET (h) (Homo sapiens, UniProt P23975); assay: cell-based; format: cell-based; conditions: human; nM; read-out: NET (h) in vitro functional uptake
T3 construct: expressed in transfected cells; host or cells: MDCK
T3 sequence (P23975 whole entry): as the sequence (P23975 whole entry) above
Description: as §1

5-HT (h) = target: T4, 5-HT (h) (Homo sapiens, UniProt P31645); assay: cell-based; format: cell-based; conditions: human; nM; read-out: 5-HT (h) in vitro functional uptake
T4 construct: expressed in transfected cells; host or cells: HEK-293
T4 sequence (P31645 whole entry): as the sequence (P31645 whole entry) above
Description: as §1

Sprague-Dawley rats = assay: 7 day multidose oral dosing toxicology study; format: in vivo, rat; conditions: for 7 day multidose oral toxicology, symptoms: Sprague-Dawley rats n = 6 (3M/3F)
Description: The representative results are listed below in Table VI.

[2] = human, nM, read-out: DAT (h) in vitro functional uptake

Q: For `CC1CCC(COc2ccc(C(F)(F)F)cc2)CN1CC(O)C1(c2ccc(Cl)cc2)CCC1` (stereo not shown) [(4)], which “forced swim test efficacy versus commercial drugs (FIG. 1)” value (rats; i.p., racemic mixtures of diastereomers) is on record?
A: performed equally well, if not better, than the commercial drugs Sibutramine, Bupropion, and Imipramine

Q: And the “acute single dose toxicology, observed symptoms” value (from here on “acute single dose toxicology”) (rat; 120 mg/kg)?
A: decreased grip strength and limb tone and convulsions

Q: And the “acute single dose toxicology” value (rat; 200 mg/kg)?
A: Convulsions

Q: `CC1C(COc2ccc(C(F)(F)F)cc2)CCCN1CC1(c2ccc(Cl)cc2)CCC1` (stereo not shown) [(5)] was tested. Which IC50 (5-HT) did it give?
A: 10000 nM

Q: What about the EC50 (DAT (r)) of the same compound?
A: 300 nM

Q: And the IC50 [1]?
A: 870 nM

Q: And the EC50 (DAT (h))?
A: 5 nM

Q: What about the “selectivity for DAT over 5-HT” value (DAT (h)) of the same compound?
A: 1000 fold

Q: What about the “selectivity for DAT over NET” value (DAT (h)) of the same compound?
A: 1000 fold

Q: What about the IC50 (DAT (SLC6A3)) of the same compound?
A: 5 nM

Q: What about the “fold selectivity of DAT against related receptors (NET, 5-HT)” value (DAT (SLC6A3); from Table II IC50) of the same compound?
A: 174-2,000 fold

Q: For `CC1C(COc2ccc(C(F)(F)F)cc2)CCCN1CC(O)C1(c2ccc(Cl)cc2)CCC1` (stereo not shown) [(6)], which “forced swim test efficacy versus commercial drugs (FIG. 2, FIG. 3)” value (rats; p.o., 35 or 75 mg/kg) is on record?
A: performed equally well, if not better, than the commercial drugs Sibutramine, Bupropion, and Imipramine

Q: What about the “acute single dose toxicology” value (rat; 200 mg/kg) of the same compound?
A: no observed symptoms

Q: Which EC50 (DAT (h); [2]) does the source give for `C[C@@H]1[C@H](COc2ccc(C(F)(F)F)cc2)CCCN1CC(O)C1(c2ccc(Cl)cc2)CCC1` (stereo partly shown) [(6′)] here?
A: 3 nM

Q: What about the EC50 (NET (h)) of the same compound?
A: 3 nM

Q: For `C[C@H]1CC[C@@H](COc2ccc(C(F)(F)F)cc2)CN1CC1(c2ccc(Cl)cc2)CCC1` [(13), (2S,5R)-1-{[1-(4-Chlorophenyl)cyclobutyl]methyl}-2-methyl-5-{[4-(trifluoromethyl)phenoxy]methyl}piperidine], which EC50 (DAT (h); [2]) is on record?
A: < 1 nM

Q: And the EC50 (5-HT (h))?
A: > 2000 nM

Q: What about the EC50 (NET (h)) of the same compound?
A: 100 nM

Q: Which results are given for `C[C@H]1CCN(CC2(c3ccc(Cl)cc3)CCC2)C[C@@H]1COc1ccc(C(F)(F)F)cc1` [(14), (3R,4S)-1-{[1-(4-Chlorophenyl)cyclobutyl]methyl}-4-methyl-3-{[4-(trifluoromethyl)phenoxy]methyl}piperidine]?
A: EC50 (DAT (h); [2]): < 1 nM; EC50 (5-HT (h)): > 2000 nM; EC50 (NET (h)): 150 nM

Q: For `C[C@@H]1CCN(CC2(c3ccc(Cl)cc3)CCC2)C[C@H]1COc1ccc(C(F)(F)F)cc1` [(15), (3S,4R)-1-{[1-(4-Chlorophenyl)cyclobutyl]methyl}-4-methyl-3-{[4-(trifluoromethyl)phenoxy]methyl}piperidine], which EC50 (DAT (h); [2]) is on record?
A: < 1 nM

Q: What about the EC50 (5-HT (h)) of the same compound?
A: > 2000 nM

Q: And the EC50 (NET (h))?
A: 350 nM

Q: `C[C@H]1CCN(CC2(c3ccc(Cl)cc3)CCC2)C[C@H]1COc1ccc(C(F)(F)F)cc1` [(16), (3S,4S)-1-{[1-(4-Chlorophenyl)cyclobutyl]methyl}-4-methyl-3-{[4-(trifluoromethyl)phenoxy]methyl}piperidine] was tested. Which EC50 (DAT (h); [2]) did it give?
A: < 1 nM

Q: What about the EC50 (5-HT (h)) of the same compound?
A: > 2000 nM

Q: And the EC50 (NET (h))?
A: 100 nM

Q: How did the EC50 (DAT (h); [2]) turn out when `C[C@H]1CC[C@@H](COc2ccc(C(F)(F)F)cc2)CN1C[C@@H](O)C1(c2ccc(Cl)cc2)CCC1` [(17), (S)-1-[1-(4-Chlorophenyl)cyclobutyl]-2-{(2S,5R)-2-methyl-5-[4-(trifluoromethyl)phenoxy]methyl}piperidin-1-ylethanol] was run?
A: 1 nM

Q: What about the EC50 (5-HT (h)) of the same compound?
A: > 2000 nM

Q: What about the EC50 (NET (h)) of the same compound?
A: 5 nM

Q: Which results are given for `C[C@H]1CC[C@@H](COc2ccc(C(F)(F)F)cc2)CN1C[C@H](O)C1(c2ccc(Cl)cc2)CCC1` [(18), (R)-1-[1-(4-Chlorophenyl)cyclobutyl]-2-{(2S,5R)-2-methyl-5-[4-(trifluoromethyl)phenoxy]methyl}piperidin-1-ylethanol]?
A: EC50 (DAT (h); [2]): 1 nM; EC50 (5-HT (h)): > 2000 nM; EC50 (NET (h)): 2 nM

Q: `C[C@@H]1CC[C@H](COc2ccc(C(F)(F)F)cc2)CN1C[C@H](O)C1(c2ccc(Cl)cc2)CCC1` [(19), (R)-1-[1-(4-Chlorophenyl)cyclobutyl]-2-{(2R,5S)-2-methyl-5-[4-(trifluoromethyl)phenoxy]methyl}piperidin-1-ylethanol] was tested. Which EC50 (DAT (h); [2]) did it give?
A: 1 nM

Q: And the EC50 (5-HT (h))?
A: > 2000 nM

Q: What about the EC50 (NET (h)) of the same compound?
A: 9 nM

Q: Which results are given for `C[C@@H]1CC[C@H](COc2ccc(C(F)(F)F)cc2)CN1C[C@@H](O)C1(c2ccc(Cl)cc2)CCC1` [(20), (S)-1-[1-(4-Chlorophenyl)cyclobutyl]-2-{(2R,5S)-2-methyl-5-[4-(trifluoromethyl)phenoxy]methyl}piperidin-1-ylethanol]?
A: EC50 (DAT (h); [2]): 1 nM; EC50 (5-HT (h)): 20 nM; EC50 (NET (h)): 2 nM

Q: Which EC50 (DAT (h); [2]) does the source give for `C[C@@H]1CC[C@@H](COc2ccc(C(F)(F)F)cc2)CN1C[C@@H](O)C1(c2ccc(Cl)cc2)CCC1` [(21), (S)-1-[1-(4-Chlorophenyl)cyclobutyl]-2-{(2R,5R)-2-methyl-5-[4-(trifluoromethyl)phenoxy]methyl}-piperidin-1-ylethanol] here?
A: 1 nM

Q: What about the EC50 (5-HT (h)) of the same compound?
A: 10 nM

Q: And the EC50 (NET (h))?
A: 5 nM

Q: With `CC(C)C[C@@H](N)C1(c2ccc(Cl)cc2)CCC1` [R-DDMS, reference compound] as the compound, how does the EC50 (DAT (h); [2]) read?
A: 100 nM

Q: And the EC50 (5-HT (h))?
A: 1500 nM

Q: And the EC50 (NET (h))?
A: 200 nM

Q: Which results are given for `CN[C@H](CC(C)C)C1(c2ccc(Cl)cc2)CCC1` [R-DMS, reference compound]?
A: EC50 (DAT (h); [2]): 30 nM; EC50 (5-HT (h)): 1500 nM; EC50 (NET (h)): 300 nM

Q: `CC(C)CC(N(C)C)C1(c2ccc(Cl)cc2)CCC1` (stereo not shown) [Sibutramine] was tested. Which “7 day multidose oral toxicology, symptoms” value (Sprague-Dawley rats; oral 100 mg/kg/day, 100 mg/kg/day) did it give?
A: decreased grip strength, depression

Q: What about the “7 day multidose oral toxicology, symptoms” value (Sprague-Dawley rats; oral 400 mg/kg/day, 400 mg/kg/day) of the same compound?
A: convulsions; also recorded: Convulsions;

Q: What about the “7 day multidose oral toxicology, deaths” value (Sprague-Dawley rats; n = 6, oral 200 mg/kg/day) of the same compound?
A: 2 deaths

Q: What about the “7 day multidose oral toxicology, self-mutilation (number of animals)” value (Sprague-Dawley rats; n = 6, oral 200 mg/kg/day) of the same compound?
A: 6 self-mutilation
